# Test results reported in PubChem BioAssay (NCI).
#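 Results reflect a 48-hour exposure of cells in 96-well plates to compound at five concentrations. Here, GI50 denotes the concentration required for 50% inhibition of growth. Definition used: TGI = concentration required for complete inhibition of growth.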
# What was measured:
# Assay in all cases: growth of human tumour cells (NCI), 48 h
# SF-295 CNS = system: SF-295 CNS
# COLO 205 colon = system: COLO 205 colon
# KM12 colon = system: KM12 colon
# CCRF-CEM leukemia = system: CCRF-CEM leukemia
# HCT-116 colon = system: HCT-116 colon
# U251 CNS = system: U251 CNS
# OVCAR-4 ovarian = system: OVCAR-4 ovarian
# M14 melanoma = system: M14 melanoma
# SR leukemia = system: SR leukemia
# UO-31 renal = system: UO-31 renal
# TK-10 renal = system: TK-10 renal
# T-47D breast = system: T-47D breast
# MOLT-4 leukemia = system: MOLT-4 leukemia
# HT29 colon = system: HT29 colon
# OVCAR-8 ovarian = system: OVCAR-8 ovarian
# HOP-92 NSCLC = system: HOP-92 NSCLC
# HL-60(TB) leukemia = system: HL-60(TB) leukemia
# LOX IMVI melanoma = system: LOX IMVI melanoma
# EKVX NSCLC = system: EKVX NSCLC
# NCI-H522 lung = system: NCI-H522 lung
# SK-MEL-28 melanoma = system: SK-MEL-28 melanoma
# HCT-15 colon = system: HCT-15 colon
# SK-OV-3 ovarian = system: SK-OV-3 ovarian
# NCI-H460 lung = system: NCI-H460 lung
# UACC-257 melanoma = system: UACC-257 melanoma
# HS 578T breast = system: HS 578T breast
# SK-MEL-2 melanoma = system: SK-MEL-2 melanoma
# SN12C renal = system: SN12C renal
# UACC-62 melanoma = system: UACC-62 melanoma
# MDA-MB-435 = system: MDA-MB-435
smiles,measurement,setting,value
COc1ccc([C@@H]2[C@@H](O)C(=O)N2c2cc(OC)c(OC)c(OC)c2)cc1,GI50,SF-295 CNS,37.8 nM
same,TGI,SF-295 CNS,> 100000 nM
same,GI50,COLO 205 colon,69.6 nM
same,TGI,COLO 205 colon,173 nM
same,GI50,KM12 colon,41.3 nM
same,TGI,KM12 colon,> 100000 nM
same,GI50,CCRF-CEM leukemia,41.3 nM
same,GI50,HCT-116 colon,38.6 nM
same,TGI,HCT-116 colon,> 100000 nM
same,GI50,U251 CNS,40.4 nM
same,TGI,U251 CNS,> 100000 nM
same,GI50,OVCAR-4 ovarian,5860 nM
same,TGI,OVCAR-4 ovarian,> 100000 nM
same,GI50,M14 melanoma,42.3 nM
same,TGI,M14 melanoma,> 100000 nM
same,GI50,SR leukemia,34.3 nM
same,TGI,SR leukemia,> 100000 nM
same,GI50,UO-31 renal,65.9 nM
same,TGI,UO-31 renal,> 100000 nM
same,GI50,TK-10 renal,32900 nM
same,TGI,TK-10 renal,> 100000 nM
same,GI50,T-47D breast,19000 nM
same,TGI,T-47D breast,> 100000 nM
same,GI50,MOLT-4 leukemia,101 nM
same,TGI,MOLT-4 leukemia,> 100000 nM
same,GI50,HT29 colon,32.9 nM
same,TGI,HT29 colon,175 nM
same,GI50,OVCAR-8 ovarian,37.6 nM
same,TGI,OVCAR-8 ovarian,> 100000 nM
same,GI50,HOP-92 NSCLC,> 44600 nM
same,TGI,HOP-92 NSCLC,> 100000 nM
same,GI50,HL-60(TB) leukemia,30.9 nM
same,TGI,HL-60(TB) leukemia,126 nM
same,GI50,LOX IMVI melanoma,47.3 nM
same,TGI,LOX IMVI melanoma,> 100000 nM
same,GI50,EKVX NSCLC,79.9 nM
same,TGI,EKVX NSCLC,> 100000 nM
same,GI50,NCI-H522 lung,24.8 nM
same,TGI,NCI-H522 lung,76.7 nM
same,TGI,SK-MEL-28 melanoma,> 100000 nM
same,GI50,HCT-15 colon,72.7 nM
same,TGI,HCT-15 colon,> 100000 nM
same,GI50,SK-OV-3 ovarian,147 nM
same,TGI,SK-OV-3 ovarian,> 57100 nM
same,GI50,NCI-H460 lung,59.3 nM
same,TGI,NCI-H460 lung,> 100000 nM
same,GI50,UACC-257 melanoma,5350 nM
same,TGI,UACC-257 melanoma,> 100000 nM
same,GI50,HS 578T breast,41 nM
same,TGI,HS 578T breast,> 100000 nM
same,GI50,SK-MEL-2 melanoma,135 nM
same,TGI,SK-MEL-2 melanoma,> 100000 nM
same,GI50,SN12C renal,124 nM
same,TGI,SN12C renal,> 100000 nM
same,GI50,UACC-62 melanoma,41.7 nM
same,TGI,UACC-62 melanoma,> 100000 nM
same,GI50,MDA-MB-435,28.1 nM
